Experiments:
[1] = biological target: T1, MfnB_MM (Methanococcus maripaludis, UniProt Q6LZC1); experiment: spectrophotometric, 4-HFC-P formation at […] nm; fit with substrate inhibition term; format: biochemical; details: 45 °C (optimum), pH 7.5, 20 mM Tris–HCl, 150 mM NaCl; two substrate molecules condensed
T1 construct: gene mfnB; full length, N-terminal hexa-histidine tag (pOPINF), no tag cleavage described; codon-optimised synthetic gene, expressed in E. coli BL21 (DE3)

[2] = biological target: T2, MfnB_MJ (Methanocaldococcus jannaschii, UniProt Q58499); experiment: as above; format: biochemical; details: 75 °C (optimum), pH 7.5, 20 mM Tris–HCl, 150 mM NaCl; two substrate molecules condensed; substrate inhibition constant
T2 construct: gene mfnB; full length (235 residues), N-terminal hexa-histidine tag (pOPINF), no tag cleavage described; codon-optimised synthetic gene, expressed in E. coli BL21 (DE3); homohexamer in published crystal structure

[3] = biological target: T1, MfnB_MM; experiment: as above; format: biochemical; details: 45 °C (optimum), pH 7.5, 20 mM Tris–HCl, 150 mM NaCl; two substrate molecules condensed; substrate inhibition constant
[4] = substrate: O=C[C@H](O)COP(=O)(O)O; experiment: purified protein; format: biochemical, Methanocaldococcus jannaschii; details: 75 °C (optimum), pH 7.5, 20 mM Tris–HCl, 150 mM NaCl, two substrate molecules condensed

T1 sequence (Q6LZC1 whole entry): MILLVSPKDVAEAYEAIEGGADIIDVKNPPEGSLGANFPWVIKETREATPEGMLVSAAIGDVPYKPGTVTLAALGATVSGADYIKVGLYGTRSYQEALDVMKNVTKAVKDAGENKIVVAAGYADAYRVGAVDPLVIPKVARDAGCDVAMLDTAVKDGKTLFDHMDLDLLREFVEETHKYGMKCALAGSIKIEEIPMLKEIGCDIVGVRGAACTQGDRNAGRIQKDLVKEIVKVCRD

| Molecule | Km [1] [µM] | Ki [2] [µM] | Ki [3] [µM] | Km [4] [µM] | kcat [4] [s⁻¹] |
| --- | --- | --- | --- | --- | --- |
| O=C[C@H](O)COP(=O)(O)O [D-GA-3-P] | 6.9 ± 0.6 | 565.3 ± 79.7 | 1532.0 ± 160.4 | – | – |
| MfnB_MJ (Methanocaldococcus jannaschii DSM 2661) (protein, full length (235 residues), N-terminal hexa-histidine tag (pOPINF), no tag cleavage described; codon-optimised synthetic gene, expressed in E. coli BL21 (DE3); homohexamer in published crystal structure) MILLVSPIDVEEAKEAIAGGADIIDVKNPKEGSLGANFPWMIKAIREVTPKDLLVSATVGDVPYKPGTISLAAVGAAISGADYIKVGLYGVKNYYQAVELMKNVVRAVKDIDENKIVVAAGYADAYRVGAVEPLIVPKIARDAGCDVAMLDTAIKDGKTLFDFQSKEILAEFVDEAHSYGLKCALAGSIKKEHIPILKEIGTDIVGVRGAACKGGDRNNGRIDRELVKELKELCK | – | – | – | 24.6 ± 3.1 | 0.142 ± 0.0067 |

Reference: publication PMC11365854, “Molecular basis of hyper-thermostability in the thermophilic archaeal aldolase MfnB” (Extremophiles, 2024)
